Results taken from patent US10195196B2, “1,4-disubstituted pyridazine analogs there of and methods for treating SMN-deficiency-related conditions” (NOVARTIS AG, priority 2012, dated 2019).

System: SMN protein
Experiment: cellular SMN ELISA (SMN protein elevation)
Format: cell-based
Conditions: myoblast cell line from SMNdelta7 mouse model, 24 hours treatment; for SMN activity Fold: fold activation over DMSO control
Procedure, shortened: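 Readout is fold SMN elevation versus DMSO plus EC50, measured by anti-SMN capture ELISA with 450 nm absorbance. Lysates came from a myoblast line of the SMNdelta7 mouse model after 24 h compound exposure, with dose ranges of 20 nM–10 μM (condition 1) or 100 pM–10 μM (condition 2).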

[1] = ELISA condition 2: compound concentration 100 pM-10 uM
[2] = ELISA condition 1: compound concentration range 20 nM-10 uM

Compound	EC50 [1] [nM]	SMN activity Fold [1] [Fold]	EC50 [2] [nM]	SMN activity Fold [2] [Fold]
CN(c1ccc(-c2cc(C(=O)NCc3cnn(C)c3)ccc2O)nn1)C1CC(C)(C)NC(C)(C)C1 [Example 36-1, 4-hydroxy-3-(6-(methyl(2,2,6,6-tetramethylpiperidin-4-yl)amino)pyridazin-3-yl)-N-((1-methyl-1H-pyrazol-4-yl)methyl)benzamide]	652	2.04	–	–
CN(c1ccc(-c2ccc(-n3ccnc3)cc2O)nn1)C1CC(C)(C)NC(C)(C)C1 [Example 12-1, 5-(1H-imidazole-1-yl)-2-(6-(methyl(2,2,6,6-tetramethyl-piperidin-4-yl)amino)pyridazin-3-yl)phenol]	4	3.13	–	–
CN(c1ccc(-c2ccccc2O)nn1)C1CC(C)(C)NC(C)(C)C1 [Example 1-7, 2-(6-(methyl-(2,2,6,6-tetra-methylpiperidin-4-yl)amino)-pyridazin-3-yl)phenol]	–	–	1550	2.07
COc1ccc(-c2ccc(-c3ccc(N(C)C4CC(C)(C)NC(C)(C)C4)nn3)c(O)c2)cn1 [Example 41-4, 5-(6-methoxypyridin-3-yl)-2-(6-(methyl(2,2,6,6-tetramethylpiperidin-4-yl)amino)pyridazin-3-yl)phenol]	80	3.29	–	–
CN(c1ccc(-c2ccc(-c3ccc(=O)n(C)c3)cc2O)nn1)C1CC(C)(C)NC(C)(C)C1 [Example 41-6, 5-(3-hydroxy-4-(6-(methyl(2,2,6,6-tetramethylpiperidin-4-yl)amino)pyridazin-3-yl)phenyl)-1-methylpyridin-2(1H)-one]	10	2.67	–	–
CN(c1ccc(-c2ccc3cnc(OCc4ccccc4)cc3c2)nn1)C1CC(C)(C)NC(C)(C)C1 [Example 39-1, 6-(3-(benzyloxy)isoquinolin-6-yl)-N-methyl-N-(2,2,6,6-tetramethylpiperidin-4-yl)pyridazin-3-amine]	1030	2.65	–	–
Oc1cc(-n2cccn2)ccc1-c1ccc(N2CCNCC2)nn1 [Example 18-1, 2-(6-piperazin-1-yl-pyridazin-3-yl)-5-pyrazol-1-yl-phenol]	296	3.07	–	–
COc1cc(O)c(-c2ccc(N(C)C3CC(C)(C)NC(C)(C)C3)nn2)cc1OC [Example 3-10, 4,5-dimethoxy-2-{6-[methyl-(2,2,6,6-tetramethyl-piperidin-4-yl)-amino]-pyridazin-3-yl}-phenol]	855	2.53	–	–
CC1(C)CN(c2ccc(-c3ccc(-n4cccn4)cc3O)nn2)CCN1 [Example 18-15, 2-[6-(3,3-dimethyl-piperazin-1-yl)-pyridazin-3-yl]-5-pyrazol-1-yl-phenol]	714	2.30	–	–
COCCCOc1ccc2cc(-c3ccc(N(C)C4CC(C)(C)NC(C)(C)C4)nn3)c(O)cc2c1 [Example 20-8, 7-(3-methoxypropoxy)-3-(6-(methyl(2,2,6,6-tetramethylpiperidin-4-yl)amino)pyridazin-3-yl)naphthalen-2-ol]	30	2.61	–	–
CN(c1ccc(-c2cc3ccc(CN4CCCC4)cc3cc2O)nn1)C1CC(C)(C)NC(C)(C)C1 [Example 24-3, 3-(6-(methyl(2,2,6,6-tetramethylpiperidin-4-yl)amino)pyridazin-3-yl)-7-(pyrrolidin-1-ylmethyl)naphthalen-2-ol]	120	2.75	–	–
Oc1cc(-n2cccn2)ccc1-c1ccc(OC2CCNC2)nn1 (centres unmarked) [Example 17-5, 5-(1H-pyrazol-1-yl)-2-(6-(pyrrolidin-3-yloxy)pyridazin-3-yl)phenol]	2440	2.78	–	–
Oc1cc(-n2cccn2)ccc1-c1ccc(NC2CNC2)nn1 [Example 18-3, 2-[6-(azetidin-3-ylamino)-pyridazin-3-yl]-5-pyrazol-1-yl-phenol]	–	–	660	1.95
